Patent US12473299B2, “Cross-linked nucleoside and nucleotide using same” (Osaka University, priority 2020, dated 2025)
In the oligonucleotide strings, read from the 5' end, every base follows the letter of its sugar. An asterisk marks phosphorothioate; unmarked linkages are phosphodiester. Other units and linkages are bracketed, terminal groups are in braces. A string of capitals states the bases alone. [BANA] = BANA-modified thymidine; l = locked nucleic acid (LNA); [HNA] = hexitol nucleic acid; [5mC] = 5-methylcytosine; d = 2'-deoxy (DNA)

Experiments:
Assay type in all cases: binding
[1] = system: single-stranded oligo RNA 5′-r([…])-3′ (SEQ ID No. 36); assay: Double-strand forming ability (Tm) of mMALAT1 antisense oligonucleotides with RNA; conditions: for RNA Complement Tm: as in Example 9; for RNA Complement ΔTm: difference from the Tm of the sequence (26)
Procedure: (§1) The double-strand forming ability of the oligonucleotides was examined by subjecting the different types of oligonucleotides and the target strands to an annealing treatment to form double strands, and then measuring their Tm values. More specifically, a mixed liquid of each oligonucleotide (final concentration: 4 μM) and a phosphate buffer (10 mM, pH 7.2, 130 μL) containing sodium chloride (final concentration: 100 mM) was bathed in boiling water and then slowly cooled to room temperature. After that, the mixed liquid was cooled to 5° C. under nitrogen stream before starting the measurement. The temperature was raised to 90° C. at a rate of 0.5° C./min while absorbance at 260 nm was plotted at intervals of 0.5° C. The Tm value was calculated using a median method or differentiation (SEQ ID No. 17), and a mean value of three independent measurements was adopted.
Furthermore, the double-strand forming ability for RNA, of each oligonucleotide was assessed in a manner similar to that of Example 9. Two sequences shown in Table 42 below were used as controls (also represented by SEQ ID Nos. 34 and 35, respectively).
A single-stranded oligo RNA 5′-r([…])-3′ (SEQ ID No. 36) was used as a target strand.

[2] = system: single-stranded oligo DNA 5′-d(AGCAAAAAACGC)-3′ (SEQ ID No. 19); assay: Double-strand forming ability (Tm) with single-stranded oligo DNA; conditions: for ssDNA ΔTm/mod.: Tm change per artificially modified nucleic acid base vs 5′-GCGTTTTTTGCT-3′; for ssDNA Tm: oligonucleotide 4 μM, 10 mM phosphate buffer pH 7.2, 100 mM NaCl, mean of three measurements
Procedure: as §1

[3] = system: single-stranded oligo RNA 5′-r(AGCAAAAAACGC)-3′ (SEQ ID No. 18); assay: Double-strand forming ability (Tm) with single-stranded oligo RNA; conditions: for ssRNA ΔTm/mod.: Tm change per artificially modified nucleic acid base vs 5′-GCGTTTTTTGCT-3′; for ssRNA Tm: oligonucleotide 4 μM, 10 mM phosphate buffer pH 7.2, 100 mM NaCl, mean of three measurements; for RNA Complement ΔTm: difference from the Tm of the sequence (18); for RNA Complement Tm: sequences (18) to (21), as in Example 9

| Substance | RNA Complement Tm [1] | RNA Complement ΔTm [1] | ssDNA Tm [2] | ssRNA Tm [3] | further results |
| --- | --- | --- | --- | --- | --- |
| 5′-d(5T^LA^g^t^t^c^a^c^t^g^a^a^T^LG^5)-3′ (antisense CTAGTTCACTGAATGC; BANA and LNA modifications, phosphorothioate linkages; modified_base (1)..(1) c = BANA-mC3; modified_base (2)..(2) t = BANA-t3; modified_base (3)..(3) a = LNA-a; modified_base (3)..(13) phosphorothioated; modified_base (14)..(14) t = BANA-t3; modified_base (15)..(15) g = LNA-g; modified_base (16)..(16) c = BANA-mC3) [(25), antisense oligonucleotide against mMALAT1; 5: BANA-^mC3, T: BANA-T3] | 63.4 °C | +1.3 °C | – | – | – |
| 5′-d(5T^LA^g^t^t^c^a^c^t^g^a^a^T^^LG^5)-3′ (antisense CTAGTTCACTGAATGC; BANA and LNA modifications, phosphorothioate linkages; modified_base (1)..(1) c = SANA-mC3; modified_base (2)..(2) t = SANA-t3; modified_base (3)..(3) a = LNA-a; modified_base (4)..(16) phosphorothioated; modified_base (14)..(14) t = SANA-t3; modified_base (15)..(15) g = LNA-g; modified_base (16)..(16) c = SANA-mC3) [(23), antisense oligonucleotide against mMALAT1; 5: BANA-^mC3, T: BANA-T3] | 61.0 °C | −1.1 °C | – | – | – |
| 5′-d(5^T^^LA^g^t^t^c^a^c^t^g^a^a^T^LG^5)-3′ (antisense CTAGTTCACTGAATGC; BANA and LNA modifications, phosphorothioate linkages; modified_base (1)..(1) c = SANA-mC3; modified_base (2)..(2) t = SANA-t3; modified_base (2)..(13) phosphorothioated; modified_base (3)..(3) a = LNA-a; modified_base (14)..(14) t = SANA-t3; modified_base (15)..(15) g = LNA-g; modified_base (16)..(16) c = SANA-mC3) [(24), antisense oligonucleotide against mMALAT1; 5: BANA-^mC3, T: BANA-T3] | 61.7 °C | −0.4 °C | – | – | – |
| 5′-d(5^T^^LA^g^t^t^c^a^c^t^g^a^a^T^^LG^5)-3′ (antisense CTAGTTCACTGAATGC; sugars from the 5' end [BANA][BANA]ldddddddddd[BANA]l[BANA], [5mC] at 1, 16, all phosphorothioate, methylation of C not given here) [(22), antisense oligonucleotide against mMALAT1; 5: BANA-^mC3, T: BANA-T3, {circumflex}: PS] | 60.3 °C | −1.8 °C | – | – | – |
| 5′-d(GCG111111GCT)-3′ (DNA GCGTTTTTTGCT; BANA-T1 modified nucleotides; modified_base (4)..(9) ANA-t1) [5′-GCG111111GCT-3′] | – | – | 40 °C | 68 °C | ssDNA ΔTm/mod. [2]: −1.8 °C; ssRNA ΔTm/mod. [3]: +3.3 °C |
| 5′-d(GCG222222GCT)-3′ (DNA GCGTTTTTTGCT; BANA-T2 modified nucleotides; modified_base (4)..(9) t = BANA-t2) [5′-GCG222222GCT-3′, 2=Compound 19 (BANA-T2)] | – | – | 47 °C | 75 °C | ssDNA ΔTm/mod. [2]: −0.7 °C; ssRNA ΔTm/mod. [3]: +4.5 °C |
| 5′-d(GCGTT1TTTGCT)-3′ (DNA GCGTTTTTTGCT; BANA-T1 modified nucleotide; modified_base (6)..(6) t = BANA-t1) [5′-GCGTT1TTTGCT-3′] | – | – | 41 °C | 44 °C | ssDNA ΔTm/mod. [2]: −10 °C; ssRNA ΔTm/mod. [3]: −4 °C |
| 5′-d(GCGTT3L3TGCT)-3′ (DNA GCGTTTTTTGCT; LNA-T and BANA-T3 modified nucleotides; modified_base (6)..(6) t = BANA-t3; modified_base (7)..(7) t = LNA-t; modified_base (8)..(8) t = BANA-t3) [(20), L=LNA-T, 3=Compound 25 (BANA-T3)] | – | – | – | – | RNA Complement ΔTm [3]: −3 °C; RNA Complement Tm [3]: 60 °C |
| 5′-d(GCGTT33LTGCT)-3′ (DNA GCGTTTTTTGCT; LNA-T and BANA-T3 modified nucleotides; modified_base (6)..(7) t = BANA-t3; modified_base (8)..(8) t =LNA-t) [(21), L=LNA-T, 3=Compound 25 (BANA-T3)] | – | – | – | – | RNA Complement ΔTm [3]: −2 °C; RNA Complement Tm [3]: 61 °C |
| 5′-d(GCGTTHTTTGCT)-3′ (DNA GCGTTTTTTGCT; sugars from the 5' end d5 [HNA]1 d6, backbone not given here) [H=HNA-T, reference compound] | – | – | 47 °C | 49 °C | ssDNA ΔTm/mod. [2]: −4 °C; ssRNA ΔTm/mod. [3]: +1 °C |
| 5′-d(GCGTTL33TGCT)-3′ (DNA GCGTTTTTTGCT; LNA-T and BANA-T3 modified nucleotides; modified_base (6)..(6) t = LNA-t; modified_base (7)..(8) t = BANA-t3) [(19), L=LNA-T, 3=Compound 25 (BANA-T3)] | – | – | – | – | RNA Complement ΔTm [3]: +1 °C; RNA Complement Tm [3]: 64 °C |
| 5′-d(GCGTTLLLTGCT)-3′ (DNA GCGTTTTTTGCT; sugars from the 5' end d5 l3 d4, backbone not given here) [(18), L=LNA-T (LNA), reference compound] | – | – | – | – | RNA Complement Tm [3]: 63 °C |
| 5′-d(GCGTTTTTTGCT)-3′ (DNA, backbone and methylation of C not given here) [native DNA (dT), reference compound] | – | – | 51 °C | 48 °C | – |
| 5′-d(^LC^^LT^^LA^g^t^t^c^a^c^t^g^a^a^^LT^^LG^^LC)-3′ (antisense CTAGTTCACTGAATGC; sugars from the 5' end l3 d10 l3, all phosphorothioate, methylation of C not given here) [(26), control, LNA gapmer with PS, reference compound] | 62.1 °C | – | – | – | – |
| 5′-d(c^t^a^g^t^t^c^a^c^t^g^a^a^t^g^c)-3′ (antisense dC*dT*dA*dG*dT*dT*dC*dA*dC*dT*dG*dA*dA*dT*dG*dC) [(27), control, PS DNA, reference compound] | 44.2 °C | −17.9 °C | – | – | – |
